# How the values were obtained:
# Serratia marcescens [1] = assay: Inhibitory activity against Serratia marcescens X99 at 1 mg/mL concentration using Agar disk plate assay; type: functional
# [2] = test system: Salmonella enterica subsp. enterica serovar Gallinarum; assay: Inhibitory activity against Salmonella gallinarum X142 at 1 mg/mL concentration using Agar disk plate assay; type: functional
# Escherichia coli [3] = assay: Inhibitory activity against Escherichia coli X580 at 1 mg/mL concentration using Agar disk plate assay; type: functional
# Escherichia coli [4] = assay: Inhibitory activity against Escherichia coli X161 at 1 mg/mL concentration using Agar disk plate assay; type: functional
# Escherichia coli [5] = assay: Inhibitory activity against Escherichia coli X161M at 1 mg/mL concentration using Agar disk plate assay; type: functional
# Proteus vulgaris [6] = assay: Inhibitory activity against Proteus vulgaris X45 at 1 mg/mL concentration using Agar disk plate assay; type: functional
# Salmonella typhi [7] = assay: Minimum inhibitory concentration against Salmonella typhi 1335; type: functional, Salmonella enterica subsp. enterica serovar Typhi; settings: Salmonella enterica
# Morganella morganii = assay: Minimum inhibitory concentration against Proteus morganii PR15; type: functional
# [8] = test system: Staphylococcus epidermidis; assay: Minimum inhibitory concentration against Staphylococcus epidermidis (2 strains); type: functional
# Proteus inconstans = assay: Minimum inhibitory concentration against Proteus inconstans PR33; type: functional; settings: Providencia alcalifaciens
# Providencia rettgeri = assay: Minimum inhibitory concentration against Proteus rettgeri C24; type: functional
# Escherichia coli [9] = assay: Inhibitory activity against Escherichia coli X161M at 10 mg/mL concentration using Agar disk plate assay; type: functional
# Bacillus subtilis [10] = assay: Inhibitory activity against Bacillus Subtilis X12M at 10 mg/mL concentration using Agar disk plate assay; type: functional
# Escherichia coli [11] = assay: Inhibitory activity against Escherichia coli X161 at 10 mg/mL concentration using Agar disk plate assay; type: functional
# Streptococcus pyogenes = assay: Minimum inhibitory concentration against Streptococcus pyogenes C203; type: functional
# Citrobacter freundii = assay: Minimum inhibitory concentration against Citrobacter freundii CF17; type: functional
# Staphylococcus aureus [12] = assay: Minimum inhibitory concentration against Staphylococcus aureus (4 strains); type: functional
# Escherichia coli [13] = assay: Inhibitory activity against Escherichia coli X580 at 10 mg/mL concentration using Agar disk plate assay; type: functional
# Micrococcus luteus [14] = assay: Inhibitory activity against Sarcina lutea X186 at 10 mg/mL concentration using Agar disk plate assay; type: functional
# Streptococcus pneumoniae = assay: Minimum inhibitory concentration against Streptococcus pneumoniae Park I; type: functional
# Klebsiella pneumoniae [15] = assay: Minimum inhibitory concentration against Klebsiella pneumoniae KAE; type: functional
# Serratia marcescens [16] = assay: Inhibitory activity against Serratia marcescens X99 at 10 mg/mL concentration using Agar disk plate assay; type: functional
# Pseudomonas aeruginosa [17] = assay: Minimum inhibitory concentration against Pseudomonas aeruginosa (4 strains); type: functional
# Serratia marcescens [18] = assay: Minimum inhibitory concentration against Serratia marcescens SE3; type: functional
# Escherichia coli [19] = assay: Minimum inhibitory concentration against Escherichia coli TEM; type: functional
# Klebsiella aerogenes [20] = assay: Minimum inhibitory concentration against Enterobacter aerogenes EB 17; type: functional
# Staphylococcus aureus [21] = assay: Inhibitory activity against Staphylococcus aureus X1 at 10 mg/mL concentration using Agar disk plate assay; type: functional
# Ralstonia solanacearum [22] = assay: Inhibitory activity against Pseudomonas solanacearum X185 at 1 mg/mL concentration using Agar disk plate assay; type: functional
# Bacillus subtilis [23] = assay: Inhibitory activity against Bacillus Subtilis X12M at 1 mg/mL concentration using Agar disk plate assay; type: functional
# [24] = test system: Salmonella enterica subsp. enterica serovar Gallinarum; assay: Inhibitory activity against Salmonella gallinarum X142 at 10 mg/mL concentration using Agar disk plate assay; type: functional
# Micrococcus luteus [25] = assay: Inhibitory activity against Sarcina lutea X186 at 1 mg/mL concentration using Agar disk plate assay; type: functional
# Haemophilus influenzae [26] = assay: Minimum inhibitory concentration against Haemophilus influenza C.L; type: functional
# Proteus vulgaris [27] = assay: Inhibitory activity against Proteus vulgaris X45 at 10 mg/mL concentration using Agar disk plate assay; type: functional
# [28] = test system: Geobacillus stearothermophilus; assay: Inhibitory activity against Bacillus Stearothermophilus C451 at 10 mg/mL concentration using Agar disk plate assay; type: functional
# Ralstonia solanacearum [29] = assay: Inhibitory activity against Pseudomonas solanacearum X185 at 10 mg/mL concentration using Agar disk plate assay; type: functional
# Klebsiella aerogenes [30] = assay: Minimum inhibitory concentration against Enterobacter aerogenes C32; type: functional
# [31] = test system: Geobacillus stearothermophilus; assay: Inhibitory activity against Bacillus Stearothermophilus C451 at 1 mg/mL concentration using Agar disk plate assay; type: functional
# Escherichia coli [32] = assay: Minimum inhibitory concentration against Escherichia coli EC14; type: functional
# Klebsiella pneumoniae [33] = assay: Minimum inhibitory concentration against Klebsiella pneumoniae X26; type: functional
# [34] = test system: Acinetobacter calcoaceticus; assay: Minimum inhibitory concentration against Acinetobacter calcoaceticus AC12; type: functional
# Escherichia coli [35] = assay: Minimum inhibitory concentration against Escherichia coli N10; type: functional
# Bacillus subtilis [36] = assay: Inhibitory activity against Bacillus Subtilis X12 at 10 mg/mL concentration using Agar disk plate assay; type: functional
# Klebsiella pneumoniae [37] = assay: Minimum inhibitory concentration against Klebsiella pneumoniae X68; type: functional
# Enterobacter cloacae [38] = assay: Minimum inhibitory concentration against Enterobacter cloacae EB5; type: functional
# Streptococcus = assay: Minimum inhibitory concentration against Streptococcus sp. Group D (2 strains); type: functional
# Pseudomonas aeruginosa [39] = assay: Inhibitory activity against Pseudomonas aeruginosa X48 at 10 mg/mL concentration using Agar disk plate assay; type: functional
# Bacillus subtilis [40] = assay: Inhibitory activity against Bacillus Subtilis X12 at 1 mg/mL concentration using Agar disk plate assay; type: functional
# Serratia marcescens [41] = assay: Minimum inhibitory concentration against Serratia marcescens X99; type: functional
# Enterobacter cloacae [42] = assay: Minimum inhibitory concentration against Enterobacter cloacae 265A; type: functional
# Salmonella typhi [43] = assay: Minimum inhibitory concentration against Salmonella typhi X514; type: functional, Salmonella enterica subsp. enterica serovar Typhi; settings: Salmonella enterica
# Haemophilus influenzae [44] = assay: Minimum inhibitory concentration against Haemophilus influenza 76; type: functional
compound,measurement,setting,value
CO/N=C(/C(=O)N[C@@H]1C(=O)N(O[C@H](OC(C)=O)C(=O)[O-])[C@H]1C)c1csc(N)n1.[K+],Zone of inhibition,Serratia marcescens [1],18 mm
same,Zone of inhibition,[2],17 mm
same,Zone of inhibition,Escherichia coli [3],38 mm
same,Zone of inhibition,Escherichia coli [4],26 mm
same,Zone of inhibition,Escherichia coli [5],28 mm
same,Zone of inhibition,Proteus vulgaris [6],25 mm
CO/N=C(\C(=O)N[C@@H]1C(=O)N(O[C@H](OC(C)=O)C(=O)[O-])[C@H]1C)c1csc(N)n1.[K+],Zone of inhibition,Serratia marcescens [1],24 mm
same,Zone of inhibition,[2],25 mm
same,Zone of inhibition,Escherichia coli [3],46 mm
same,Zone of inhibition,Escherichia coli [4],17 mm
same,Zone of inhibition,Escherichia coli [5],30 mm
same,Zone of inhibition,Proteus vulgaris [6],28 mm
CO/N=C(/C(=O)N[C@@H]1C(=O)N(S(=O)(=O)[O-])[C@H]1C)c1csc(N)n1.[K+],MIC,Salmonella typhi [7],0.125 µg/mL
same,MIC,Morganella morganii,0.25 µg/mL
same,MIC,[8],> 64 µg/mL
same,MIC,Proteus inconstans,0.03 µg/mL
same,MIC,Providencia rettgeri,0.03 µg/mL
same,Zone of inhibition,Escherichia coli [9],54 mm
same,Zone of inhibition,Serratia marcescens [1],33 mm
same,Zone of inhibition,Bacillus subtilis [10],30 mm
same,Zone of inhibition,Escherichia coli [11],40 mm
same,MIC,Streptococcus pyogenes,4 µg/mL
same,MIC,Citrobacter freundii,0.25 µg/mL
same,MIC,Staphylococcus aureus [12],> 64 µg/mL
same,Zone of inhibition,Escherichia coli [13],66 mm
same,Zone of inhibition,Micrococcus luteus [14],27 mm
same,MIC,Streptococcus pneumoniae,4 µg/mL
same,Zone of inhibition,[2],48 mm
same,MIC,Klebsiella pneumoniae [15],> 64 µg/mL
same,Zone of inhibition,Escherichia coli [3],54 mm
same,Zone of inhibition,Serratia marcescens [16],40 mm
same,MIC,Pseudomonas aeruginosa [17],> 64 µg/mL
same,MIC,Serratia marcescens [18],0.25 µg/mL
same,MIC,Escherichia coli [19],0.125 µg/mL
same,MIC,Klebsiella aerogenes [20],0.125 µg/mL
same,Zone of inhibition,Staphylococcus aureus [21],22 mm
same,Zone of inhibition,Ralstonia solanacearum [22],29 mm
same,Zone of inhibition,Escherichia coli [4],40 mm
same,Zone of inhibition,Bacillus subtilis [23],16 mm
same,Zone of inhibition,[24],36 mm
same,Zone of inhibition,Micrococcus luteus [25],25 mm
same,MIC,Haemophilus influenzae [26],0.5 µg/mL
same,Zone of inhibition,Escherichia coli [5],40 mm
same,Zone of inhibition,Proteus vulgaris [27],46 mm
same,Zone of inhibition,[28],30 mm
same,Zone of inhibition,Ralstonia solanacearum [29],40 mm
same,MIC,Klebsiella aerogenes [30],0.125 µg/mL
same,Zone of inhibition,[31],25 mm
same,MIC,Escherichia coli [32],0.06 µg/mL
same,MIC,Klebsiella pneumoniae [33],0.06 µg/mL
same,MIC,[34],4 µg/mL
same,MIC,Escherichia coli [35],0.125 µg/mL
same,Zone of inhibition,Bacillus subtilis [36],23 mm
same,MIC,Klebsiella pneumoniae [37],0.125 µg/mL
same,MIC,Enterobacter cloacae [38],0.125 µg/mL
same,Zone of inhibition,Proteus vulgaris [6],40 mm
same,MIC,Streptococcus,> 64 µg/mL
same,Zone of inhibition,Pseudomonas aeruginosa [39],25 mm
same,Zone of inhibition,Bacillus subtilis [40],15 mm
same,MIC,Serratia marcescens [41],0.25 µg/mL
same,MIC,Enterobacter cloacae [42],> 64 µg/mL
same,MIC,Salmonella typhi [43],0.06 µg/mL
same,MIC,Haemophilus influenzae [44],0.25 µg/mL
CO/N=C(/C(=O)N[C@H]1CN(OCC(=O)[O-])C1=O)c1csc(N)n1.[K+],MIC,Salmonella typhi [7],8 µg/mL
same,MIC,Morganella morganii,32 µg/mL
same,MIC,[8],> 64 µg/mL
same,MIC,Proteus inconstans,2 µg/mL
same,MIC,Providencia rettgeri,2 µg/mL
same,Zone of inhibition,Escherichia coli [9],19 mm
same,Zone of inhibition,Bacillus subtilis [10],13 mm
same,Zone of inhibition,Escherichia coli [11],20 mm
same,MIC,Streptococcus pyogenes,16 µg/mL
same,MIC,Citrobacter freundii,16 µg/mL
same,MIC,Staphylococcus aureus [12],> 64 µg/mL
same,Zone of inhibition,Escherichia coli [13],37 mm
same,Zone of inhibition,Micrococcus luteus [14],21 mm
same,MIC,Streptococcus pneumoniae,32 µg/mL
same,MIC,Klebsiella pneumoniae [15],> 64 µg/mL
same,Zone of inhibition,Serratia marcescens [16],16 mm
same,MIC,Pseudomonas aeruginosa [17],> 64 µg/mL
same,MIC,Serratia marcescens [18],16 µg/mL
same,MIC,Escherichia coli [19],32 µg/mL
same,MIC,Klebsiella aerogenes [20],8 µg/mL
same,Zone of inhibition,[24],22 mm
same,MIC,Haemophilus influenzae [26],16 µg/mL
same,Zone of inhibition,Proteus vulgaris [27],21 mm
same,Zone of inhibition,[28],24 mm
same,Zone of inhibition,Ralstonia solanacearum [29],16 mm
same,MIC,Klebsiella aerogenes [30],8 µg/mL
same,MIC,Escherichia coli [32],4 µg/mL
same,MIC,Klebsiella pneumoniae [33],8 µg/mL
same,MIC,[34],> 64 µg/mL
same,MIC,Escherichia coli [35],8 µg/mL
same,MIC,Klebsiella pneumoniae [37],8 µg/mL
same,MIC,Enterobacter cloacae [38],16 µg/mL
same,MIC,Streptococcus,> 64 µg/mL
same,MIC,Serratia marcescens [41],16 µg/mL
same,MIC,Enterobacter cloacae [42],> 64 µg/mL
same,MIC,Salmonella typhi [43],4 µg/mL
same,MIC,Haemophilus influenzae [44],16 µg/mL
